Test results from patent publication US11160785B2, “Methods and compositions for improving cognitive function” (AgeneBio, Inc., priority 2013, dated 2021).
Read-outs that look alike come from different tables or passages of the source.

Legend:
Assay type in all cases: in vivo, rat
[1] = system: reelin in Entorhinal Cortex (EC2); experiment: reelin in entorhinal cortex after four weeks of osmotic minipump treatment (Example 5); details: levetiracetam 10 mg/kg/day in osmotic minipumps for four weeks, aged-impaired rats
somatostatin in DG hilus = experiment: Somatostatin (SOM) immunohistochemistry, hilar interneuron counts in aged-impaired rats; details: 10 mg/kg/day, four-week treatment, AI-LEV vs AI-VEH p<0.01, AI-LEV vs Y p=0.679
Text: Tissue was labeled with anti-SOM antiserum (Santa Cruz Biotechnology; cat. no. SC7819-P) using an established immunoperoxidase protocol and tissue sections were processed concurrently to minimize inter-replication variability (Haberman et al., 2009). The anti-SOM antiserum can detect somatostatin. Briefly, sections were washed in 0.1M phosphate-buffered saline (PBS) to remove cryoprotectant, and endogenous peroxidases were quenched in 0.3% H202 in PBS. After additional PBS washes, sections were blocked in 5% normal horse serum in PBS with 0.3% Triton. Sections were then incubated with primary antibody at a dilution of 1:1600 in PBS containing 0.15% Triton and 3% normal serum for 72 hours at 4° C. with agitation. […] The secondary antibody was detected with avidin-biotin complex (ABC Elite; Vector Laboratories Inc., Burlingame, Calif.) and the avidin-biotin complex was visualized with nickel-enhanced diaminobenzadine (Vector Laboratories Inc., Burlingame, Calif.). […]
Interneuron quantification was performed using a Zeiss Axioplan 2 microscope equipped with a motorized stage. […] Neuron counts were analyzed as the total number of hilar interneurons per hippocampal section for each rat.

aged-impaired rats (AI) = system: aged-impaired rats (AI)
Procedure: FIG. 1 depicts the effects of administering levetiracetam on the spatial memory retention of ten aged-impaired rats (AI) in an eight-arm Radial Arm Maze (RAM) test. Six treatment conditions are employed: vehicle control, levetiracetam (1.25 mg/kg/day), levetiracetam (2.5 mg/kg/day), levetiracetam (5 mg/kg/day), levetiracetam (10 mg/kg/day) and levetiracetam (20 mg/kg/day). In the RAM task used, there is a one-hour delay between presentation of a subset of arms (5 arms available and 3 arms blocked) and completion of the eight-arm win-shift task (eight arms available). Rats are pre-treated 30-40 minutes before daily trials with a one-time drug/control treatment. The number of errors made by the rats during the retention phase is used as a measure of spatial memory retention. Errors are defined as instances when rats enter an arm from which food has already been retrieved in the pre-delay component of the trial or when rats re-visit an arm in the post-delay session that had already been visited. Paired t-tests are used to compare the number of errors between different doses of levetiracetam and vehicle control. […]
A Radial Arm Maze (RAM) behavioral task is one example of a cognitive test, specifically testing spacial memory (Chappell et al. Neuropharmacology 37: 481-487, 1998). The RAM apparatus consists of, e.g., eight equidistantly spaced arms. A maze arm projects from each facet of a center platform. A food well is located at the distal end of each arm. Food is used as a reward. Blocks can be positioned to prevent entry to any arm. Numerous extra maze cues surrounding the apparatus may also be provided. After habituation and training phases, spatial memory of the subjects may be tested in the RAM under control or test compound-treated conditions. As a part of the test, subjects are pretreated before trials with a vehicle control or one of a range of dosages of the test compound. At the beginning of each trial, a subset of the arms of the eight-arm maze is blocked. Subjects are allowed to obtain food on the unblocked arms to which access is permitted during this initial “information phase” of the trial. Subjects are then removed from the maze for a delay period, e.g., a 60 second delay, a 15 minute delay, a one-hour delay, a two-hour delay, a six hour delay, a 24 hour delay, or longer) between the information phase and the subsequent “retention test,” during which the barriers on the maze are removed, thus allowing access to all eight arms. […] The identity and configuration of the blocked arms vary across trials. The number of “errors” the subjects make during the retention test phase is tracked. An error occurs in the trial if the subjects entered an arm from which food had already been retrieved in the pre-delay component of the trial, or if it re-visits an arm in the post-delay session that had already been visited. A fewer number of errors would indicate better spatial memory. The number of errors made by the test subject, under various test compound treatment regimes, can then be compared for efficacy of the test compound in treating cognitive impairment associated with CNS disorders.

CC[C@@H](C(N)=O)N1CCCC1=O [levetiracetam, (2S)-2-(2-oxopyrrolidin-1-yl) butanamide]
reelin in Entorhinal Cortex (EC2) [1]: restores reelin in Entorhinal Cortex (EC2) | levels of somatostatin in DG hilus (number of SOM-immunoreactive hilar neurons) (somatostatin in DG hilus): restores the levels of somatostatin | memory performance relative to vehicle control treatment (aged-impaired rats (AI)): significantly improves memory performance | human equivalent dose (HED) of the effective rat dose (aged-impaired rats (AI); HED for a 70 kg human): 28-56 mg twice a day | human equivalent dose (HED) of the effective rat dose (aged-impaired rats (AI); body surface area conversion of 5-10 mg/kg in rats): 0.8 to 1.6 mg/kg/day | average no. of errors±standard error of the mean (SEM) (aged-impaired rats (AI); levetiracetam 5 mg/kg/day i.p. 30-40 min before trial, one-hour delay, n=10, vehicle 2.00±0.42): 0.75±0.32 | memory performance relative to vehicle control treatment (aged-impaired rats (AI); levetiracetam 10 mg/kg/day i.p., one-hour delay, paired t-test t(9)=2.37, p=0.042): significantly improves memory performance | performance of AI rats in the radial maze task (aged-impaired rats (AI); levetiracetam 20 mg/kg, FIG. 1): fails to improve the performance of AI rats | memory performance in AI rats (aged-impaired rats (AI); rat, in vivo): does not significantly improve the memory performance
